The experiment addresses human plasma kallikrein (Homo sapiens (Human), UniProt P03952). The experiment is described as follows: In vitro enzyme inhibition of human plasma kallikrein (PFR-AMC cleavage). In kind it is biochemical. The settings on record: Pro-Phe-Arg-AMC substrate, 37° C., read-out: hPK IC50. How it is done: The ability of the compounds disclosed herein to inhibit human plasma kallikrein activity was quantified according to the procedures below.
A 10 mM solution of the test compound was made in DMSO. […] A control tube containing only DMSO is included. 16 μL of each compound test solution was combined with 384 μL of assay buffer (50 mM Tris-HCl pH 7.5, 150 mM NaCl, 0.01% Triton X-100) to yield a “4× test compound buffer stock”.
These solutions are hereby referred to as 4×hPK and 2×PFR-AMC, respectively.
50 μL was removed from this mixture and placed into duplicate wells on a Microfluor 1Black U-bottom microtiter plate (Thermo Scientific). This plate was incubated for 5 minutes at 37° C. To each well, 50 μL of pre-warmed 2×PFR-AMC was added to start the enzymatic reaction. Cleavage of PFR-AMC was monitored in a Biotek Synergy H4 reader set at 37° C. Readings are taken every 43 seconds for 1 hour. […] The IC50 is calculated using the Gen5 (Biotek Instruments).
The ability of the compounds in Table 3 to inhibit human plasma kallikrein activity was determined.

Bounds are passed on as bounds.

human plasma kallikrein, sequence (P03952 391-638 limits assumed): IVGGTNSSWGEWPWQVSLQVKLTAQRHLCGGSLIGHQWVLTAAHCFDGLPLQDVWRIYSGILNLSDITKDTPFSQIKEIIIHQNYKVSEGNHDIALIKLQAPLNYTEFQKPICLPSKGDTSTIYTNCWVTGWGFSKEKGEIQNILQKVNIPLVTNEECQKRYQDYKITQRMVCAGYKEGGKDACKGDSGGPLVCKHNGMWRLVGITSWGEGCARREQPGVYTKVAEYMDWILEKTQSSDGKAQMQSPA
human plasma kallikrein, sequence (P03952 20-390 partner limits assumed): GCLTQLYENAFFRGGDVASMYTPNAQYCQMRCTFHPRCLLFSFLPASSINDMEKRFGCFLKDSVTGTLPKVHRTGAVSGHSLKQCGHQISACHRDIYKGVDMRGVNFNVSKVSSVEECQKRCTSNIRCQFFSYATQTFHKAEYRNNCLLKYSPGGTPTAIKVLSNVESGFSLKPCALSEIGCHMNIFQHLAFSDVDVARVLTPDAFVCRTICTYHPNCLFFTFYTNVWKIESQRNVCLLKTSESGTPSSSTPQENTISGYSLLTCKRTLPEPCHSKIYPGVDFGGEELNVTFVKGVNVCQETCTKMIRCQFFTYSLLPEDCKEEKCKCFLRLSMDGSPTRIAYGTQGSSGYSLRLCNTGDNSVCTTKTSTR

In general, IC50 refers to the point on the concentration scale where inhibition reaches its midpoint. In the case of “N-((3-chloro-6-fluoro-1H-indol-5-yl)methyl)-2-((2-isocyanoquinolin-6-yl)methyl)isonicotinamide [Example 130]”, the IC50 is below 0.1 µM.

Values taken from patent US10266515B2, “Therapeutic inhibitory compounds” (LifeSci Pharmaceuticals, Inc., priority 2013, dated 2019).
